Four compounds from patent US10828368B2, “Therapeutic treatments using centhaquin” (MIDWESTERN UNIVERSITY, priority 2009, dated 2020) can be followed below.

For assay [1], the system named is urethane anaesthetized rats. Kind of assay: Cardiovascular response (MAP, PP, HR) of drugs in urethane anaesthetized rats. It is filed as in vivo, rat. The following applies: for decrease in HR after centhaquin in antagonist treated rats, compared to baseline / decrease in MAP after centhaquin in antagonist treated rats, compared to baseline / decrease in PP after centhaquin in antagonist treated rats, compared to baseline / potentiation of centhaquin hypotensive effect compared to vehicle treated rats / potentiation of centhaquin-induced decrease in HR (bradycardia) compared to vehicle treated rats: TAK-044 1 mg/kg or BMS-182874 9 mg/kg + centhaquin 0.15 mg/kg; for maximum decrease in PP after clonidine in antagonist treated rats, compared to baseline / reduction in MAP after clonidine in antagonist treated rats, compared with the baseline: TAK-044 1 mg/kg or BMS-182874 9 mg/kg + clonidine 10 μg/kg; for change in MAP, PP and HR, antagonist alone: TAK-044 1 mg/kg or BMS-182874 9 mg/kg alone; for Bradycardia, Centhaquin, percent change / Decrease in pulse pressure, Centhaquin, percent change / Hypotension, Centhaquin, percent change: centhaquin 0.33 mg/kg [sic], compared to centhaquin response in control rats. The text has this:
Rats were anaesthetized with urethane (1.5 g/kg i.p.) and prepared for the determination of hemodynamic parameters (Gulati and Srimal, 1993; Gulati et al., 1997b). The anesthetized rats were shaved and immobilized to prepare for cannulation. A 2-3 cm incision was made above the femoral vein and artery, and the vessels were dissected and cleaned. The left femoral vein was cannulated (PE-50 tubing, Clay Adams, Parsipanny, N.J.) and secured for drug administration. An ultra-miniature Pressure transducer SPR-320 (2F Polyurethane), with a single pressure sensor side mounted at the tip (Millar Instruments, Houston, Tex.), was inserted in the left femoral artery to acquire the hemodynamic signals. Pressure transducer was connected to bridge amplifier (ML221 Bridge Amp; AD Instruments, Mountain View, Calif., USA) with Viking connector (AEC-10C) and the signals were continuously acquired at a sampling rate of 1000 S^−1 using Millar PowerLab 16/30 data acquisition system (AD Instruments, Mountain View, Calif., USA). MAP, HR, and PP were determined and analyzed with LabChart-5.00 software program (Millar Instruments). After the experiment was completed, the animals were euthanized with higher dose of urethane (3 gm/kg).
The animals were allowed to stabilize for at least 20 min following surgical procedures.
In the above studies, all drugs were injected through the left femoral vein and changes in MAP, HR, and PP after clonidine and centhaquin injection were recorded for 1 hour using Millar PowerLab 16/30 data acquisition system.

Assay [2] relates to rat abdominal aortic ring. The experiment in a line: Clonidine response on the abdominal aortic ring. The following applies: ET-1 4 nM pretreated aorta. How it is done: The abdominal aorta was isolated and dissected out from urethane (1.5 g·kg^−1 i.p.) anesthetized rats and was transferred to Krebs bicarbonate buffer pH 7.4 (composition in mM, NaCl, 112.0; KCl, 4.7; KH2PO4, 1.2; MgSO4, 1.2; CaCl2, 2.5; NaHCO3, 25.0; glucose, 11.0) with continuous supply of 95% O2 and 5% CO2 at 37±1° C. The tissue was cut into ring segments (3 mm in length) and mounted in organ baths using 10 mm Radnoti glass ring supports. Extra care was taken while cutting and mounting the ring segment to prevent loss of endothelial layer. Tissue was equilibrated for 45 min by applying 2 g of tension with regular buffer change after every 15 min. Vessels were pre-contracted with 100 mM KCl to determine the viability. Clonidine-induced contractions of aortic ring were measured using Radnoti 8 unit tissue bath (Radnoti Glass Technology, Monrovia, Calif.) and the force transducer coupled with a Grass P7D polygraph. The dose response was recorded for 0.25, 0.5, 1, 2, 4, 6, 8, and 10 μM of clonidine with or without ET-1 (4 nM) treatment and ED50 value was calculated. Experiments were performed in Group 1: Vehicle+Clonidine (0.25 to 10 μM); and Group 2: ET-1 (4 nM)+Clonidine (0.25 to 10 μM) using (n=6) rats in each group.

Where [3] appears, read: ET-1 300 ng/kg + prazosin 0.1 mg/kg + centhaquin 0.15 mg/kg.
Where [4] appears, read: ET-1 100 ng/kg + clonidine 10 μg/kg, compared to vehicle treated rats receiving clonidine.
The mark [5] stands for this setting: ET-1 300 ng/kg + clonidine 10 μg/kg, compared to vehicle treated rats receiving clonidine.
Setting [6] is: ET-1 900 ng/kg + centhaquin 0.15 mg/kg, compared to vehicle treated rats receiving centhaquin.
The mark [7] stands for this setting: ET-1 900 ng/kg + clonidine 10 μg/kg, compared to vehicle treated rats receiving clonidine.

Counter-ions that a name gives are not always drawn. Ends that are not written are not given here.

`Cc1noc(NS(=O)(=O)c2cccc3c(N(C)C)cccc23)c1C` [BMS-182874, (5-Dimethylamino)-N-(3,4-dimethyl-5-isoxazolyl)-1-naphthalene sulfonamide hydrochloride]: the “potentiation of centhaquin induced decrease in HR, more than that produced by TAK-044 treatment” value in assay [1] (BMS-182874 9 mg/kg versus TAK-044 1 mg/kg, centhaquin 0.15 mg/kg) is given as 18.63%. In assay [1], the “decrease in HR after centhaquin in antagonist treated rats, compared to baseline” value is 35.72%; the “decrease in MAP after centhaquin in antagonist treated rats, compared to baseline” value is 43.46%; the “decrease in PP after centhaquin in antagonist treated rats, compared to baseline” value was 49.68%; the “potentiation of centhaquin hypotensive effect compared to vehicle treated rats” value is recorded as 30.67%. Also, in assay [1], the “potentiation of centhaquin-induced decrease in HR (bradycardia) compared to vehicle treated rats” value is recorded as 29.00%; the “maximum decrease in PP after clonidine in antagonist treated rats, compared to baseline” value was found to be 44.97%; the “reduction in MAP after clonidine in antagonist treated rats, compared with the baseline” value came to 29.44%; the “change in MAP, PP and HR, antagonist alone” value was “no significant change”. In assay [1], the “Bradycardia, Centhaquin, percent change” value is reported as “(29.00%)”; the “Decrease in pulse pressure, Centhaquin, percent change” value was “(28.72%)”; the “Hypotension, Centhaquin, percent change” value is on record as “(30.67%)”.
For `COc1cc2nc(N3CCN(C(=O)c4ccco4)CC3)nc(N)c2cc1OC` [Prazosin], in assay [1] (setting [3]), the “effect of prazosin on changes produced in MAP by centhaquin in ET-1 treated rats” value is recorded as “completely (p<0.01) blocked”, the “effect of prazosin on decrease in HR induced by centhaquin in ET-1 treated rats” value is given as “significantly (p<0.05) attenuated” and the “effect of prazosin on decrease in PP induced by centhaquin in ET-1 treated rats” value was “significantly (p<0.001) attenuated”. The “effect of prazosin on changes in MAP and HR by centhaquin in vehicle treated rats” value in assay [1] (prazosin 0.1 mg/kg + centhaquin 0.15 mg/kg) is reported as “blocked”.
For “ET-1: endogenous 21-residue peptide endothelin isopeptide, used as ET agonist (CSCSSLMDKECVYFCHLDIIW; not fully specified; ends and bridges not checked; UniProt P05305 53-73, looked up)”, in assay [2], the “effect of ET-1 pretreatment on contractile response of clonidine” value is given as “significantly potentiated”. The “decrease in HR produced by centhaquin, ET-1 versus vehicle treated rats” value in assay [1] (ET-1 100 ng/kg + centhaquin 0.15 mg/kg) is listed as “similar”. Besides, the “attenuation of clonidine induced fall in PP” value in assay [1] (ET-1 100 ng/kg + clonidine 10 μg/kg) was 33.66%. In assay [1] (setting [4]), the “attenuation of clonidine-induced decrease in HR” value worked out at 18.01% and the “attenuation of clonidine-induced fall in MAP” value was determined as 27.63%. Further, the “effect on centhaquin-induced decrease in HR” value in assay [1] (ET-1 300 ng/kg + centhaquin 0.15 mg/kg) is reported as “significantly attenuated”. In addition, in assay [1] (setting [5]), the “attenuation of clonidine-induced decrease in HR” value is listed as 21.00% and the “attenuation of clonidine-induced decrease in MAP” value came out at 27.41%. Moreover, in assay [1] (setting [6]), the “attenuation of centhaquin-induced decrease in HR (increase in HR compared to untreated rats)” value was determined as 21.44% and the “attenuation of centhaquin-induced decrease in MAP (increase in MAP compared to untreated rats)” value was found to be 33.48%. Besides, in assay [1] (setting [7]), the “attenuation of clonidine-induced decrease in HR (increase in HR compared to untreated rats)” value came to 37.42% and the “attenuation of clonidine-induced decrease in MAP (increase in MAP compared to untreated rats)” value was found to be 42.58%. Further, in assay [1] (ET-1 100, 300 and 900 ng/kg), the “change in HR compared to baseline, ET-1 alone” value is reported as “no change” and the “change in MAP compared to baseline, ET-1 alone” value is “fall (p<0.001) followed by significant rise”. Moreover, in assay [1] (ET-1 100, 300 and 900 ng/kg i.v., clonidine 10 μg/kg i.v., dose-dependent manner), the “effect of ET-1 treatment on clonidine-induced fall in MAP” value was “significantly attenuated”. For the same compound, the “effect of ET-1 treatment on centhaquin-induced fall in MAP” value in assay [1] (ET-1 100, 300 and 900 ng/kg, centhaquin 0.15 mg/kg i.v., dose-dependent manner) is “significantly attenuated”. Moreover, in assay [1] (ET-1 100 and 300 ng/kg + centhaquin 0.15 mg/kg), the “attenuation of centhaquin-induced decrease in MAP” value was “small statistically insignificant attenuation”. Moreover, in assay [1] (ET-1 300 and 900 ng/kg + clonidine 10 μg/kg), the “attenuation of clonidine induced fall in PP” value is on record as “showed attenuation, but did not reach the level of statistical significance”.
With “cyclo [D-α-aspartyl-3-[(4-phenylpiperazin-1-yl) carbonyl]-L-alanyl-L-α-aspartyl-D-2-(2-thienyl)glycyl-L-leu-Cyl-D-tryptOphyljdisodium salt [TAK-044]”, in assay [1], the “decrease in HR after centhaquin in antagonist treated rats, compared to baseline” value was found to be 21.94%; the “decrease in MAP after centhaquin in antagonist treated rats, compared to baseline” value is 32.31%; the “decrease in PP after centhaquin in antagonist treated rats, compared to baseline” value is reported as 46.49%; the “potentiation of centhaquin hypotensive effect compared to vehicle treated rats” value came to 16.48%. For the same compound, in assay [1], the “potentiation of centhaquin-induced decrease in HR (bradycardia) compared to vehicle treated rats” value amounted to 12.74%; the “maximum decrease in PP after clonidine in antagonist treated rats, compared to baseline” value is on record as 52.72%; the “reduction in MAP after clonidine in antagonist treated rats, compared with the baseline” value is reported as 36.59%; the “change in MAP, PP and HR, antagonist alone” value was “no significant change”. Moreover, in assay [1], the “Bradycardia, Centhaquin, percent change” value is “(12.74%)”; the “Decrease in pulse pressure, Centhaquin, percent change” value is recorded as “(23.83%)”; the “Hypotension, Centhaquin, percent change” value is recorded as “(16.48%)”.
